US6541238B1, “Recombinant cellulose synthase” (Board of Regents, The University of Texas Systems, priority 1990, dated 2003)

What was measured:
[1] = tested on: DNA from A. xylinum ATCC 53582 and ATCC 23769; assay: DNA-DNA hybridization of 17-mer oligonucleotide probes with HindIII-digested total DNA; format: binding, Acetobacter xylinum; settings: stringent hybridization conditions; HindIII digest
Method: Hybridization of the oligonucleotide probes with A. xylinum DNA was carried out using the eight oligonucleotides that were thus synthesized. […] In order to accomplish these studies, total DNA from A. xylinum ATCC 53582, A. xylinum ATCC 23769, and E. coil HB101 (a common strain of E. coli used in recombinant DNA experiments) was digested with HindIII and the fragments were separated on an agarose gel. After separation, the fragments were transferred by capillary action to a nylon membrane (GeneScreen; NEN Research Products) according to the procedure of Reed and Mann (1985). The DNA thus transferred was next hybridized with the ^32P-labeled oligonucleotide of the invention using standard procedures. Hybridization was accomplished in a solution with 5×SSC [1×SSC: 0.15M NaCl, 0.015M sodium citrate] at 45° C. for 16-24 hours. The filters were then washed with a solution containing reduced salt concentration. In all cases, the hybridization temperature was 5-7° C. below the dissociation temperature as described by Suggs, et al. (1981) applying the formula Td=2(A+T)+4(G+C).

[2] = molecular target: T1, 83 kd polypeptide of cellulose synthase (Komagataeibacter xylinus, UniProt P0CW87); assay: Photoaffinity labeling of purified cellulose synthase with [β-32P]5N3UDP-glc; format: binding, Acetobacter xylinum
T1 construct: endogenous in cells; host or cells: Acetobacter xylinum ATCC 53582; membranes solubilized with detergent, enzyme purified by cellulose entrapment
T1 sequence (P0CW87 1-723): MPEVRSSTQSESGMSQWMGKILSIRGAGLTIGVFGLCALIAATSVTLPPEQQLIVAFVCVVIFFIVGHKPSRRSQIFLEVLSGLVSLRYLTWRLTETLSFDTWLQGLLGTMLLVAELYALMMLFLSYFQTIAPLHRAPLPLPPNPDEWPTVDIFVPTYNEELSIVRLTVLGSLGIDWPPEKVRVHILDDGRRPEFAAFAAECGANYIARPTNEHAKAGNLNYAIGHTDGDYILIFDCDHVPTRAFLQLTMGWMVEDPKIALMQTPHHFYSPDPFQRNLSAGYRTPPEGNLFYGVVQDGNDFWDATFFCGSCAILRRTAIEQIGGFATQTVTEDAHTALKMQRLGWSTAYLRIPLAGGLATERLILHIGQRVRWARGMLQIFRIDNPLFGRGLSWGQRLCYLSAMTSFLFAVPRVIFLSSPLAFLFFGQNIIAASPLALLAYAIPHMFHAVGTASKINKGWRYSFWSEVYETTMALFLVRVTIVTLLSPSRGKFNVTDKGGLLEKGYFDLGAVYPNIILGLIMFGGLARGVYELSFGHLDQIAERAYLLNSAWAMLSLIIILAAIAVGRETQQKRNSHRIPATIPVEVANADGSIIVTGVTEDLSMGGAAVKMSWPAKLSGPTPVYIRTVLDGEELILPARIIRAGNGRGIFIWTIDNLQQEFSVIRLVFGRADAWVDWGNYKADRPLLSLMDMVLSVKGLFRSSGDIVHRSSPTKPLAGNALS
T1 sequence (P0CW87 742-1550 partner limits assumed): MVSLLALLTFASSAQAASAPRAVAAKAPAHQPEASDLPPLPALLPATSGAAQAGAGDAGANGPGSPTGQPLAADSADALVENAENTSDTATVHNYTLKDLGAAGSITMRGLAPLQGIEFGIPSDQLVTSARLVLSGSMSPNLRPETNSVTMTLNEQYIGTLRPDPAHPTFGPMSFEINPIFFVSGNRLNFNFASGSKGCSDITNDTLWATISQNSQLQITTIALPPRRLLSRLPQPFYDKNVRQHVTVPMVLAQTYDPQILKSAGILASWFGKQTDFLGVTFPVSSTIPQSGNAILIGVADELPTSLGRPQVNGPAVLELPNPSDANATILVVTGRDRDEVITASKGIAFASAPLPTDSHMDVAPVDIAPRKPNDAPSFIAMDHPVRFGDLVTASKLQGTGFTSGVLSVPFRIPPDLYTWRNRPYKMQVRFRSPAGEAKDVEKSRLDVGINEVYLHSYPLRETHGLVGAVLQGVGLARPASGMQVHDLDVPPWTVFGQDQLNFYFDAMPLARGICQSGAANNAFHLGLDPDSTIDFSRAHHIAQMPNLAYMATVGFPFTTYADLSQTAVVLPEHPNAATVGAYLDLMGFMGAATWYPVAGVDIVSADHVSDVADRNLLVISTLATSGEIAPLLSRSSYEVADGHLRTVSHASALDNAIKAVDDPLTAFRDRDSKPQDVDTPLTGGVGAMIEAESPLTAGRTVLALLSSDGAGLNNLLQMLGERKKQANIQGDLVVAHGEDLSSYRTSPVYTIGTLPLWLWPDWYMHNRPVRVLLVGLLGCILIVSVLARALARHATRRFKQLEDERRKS
Method: In addition to 20 μl of activator for cellulose synthase, each reaction mixture contained 50 mM Tris-HCl, 10 mM MgCl2, 1 mM CaCl2, 1 mM EDTA, the indicated protein quantity of enzyme sample, and 20 μM of [β-^32P]5N3UDP-glc (specific activity, 24 mCi/μmol) in a final reaction volume of 50 μl at pH 8.0-8.5. For competition experiments, the competitor, namely UDP-glc, was added at final concentrations of 0, 50, 100, and 300 μM, respectively. For saturation studies, [B-^32P]5N3UDP-glc was added at final concentrations of 20, 50, 100, 300 and 500 μM, respectively. […] Reactions were terminated by the addition of 0.3 ml of 7% perchloric acid. […] The Coomassie blue stained gel was dried and autoradiographed. Autoradiography was performed at −80° C. with Kodak X-Omat AR film and a Dupont Cronex intensifying screen. The molecular mass standards (Bio-Rad) were phosphorylase b (97kd), bovine serum albumin (66 kd), ovalbumin (45 kd), and carbonic anhydrase (31 kd).
The quantitation of the autoradiographs was measured by grey value discrimination of a digitized image (recorded on a Kontron/Zeiss IBAS Image Processing System).

[3] = molecular target: cellulose synthase of Acetobacter xylinum, Triton X-100-solubilized enzyme preparation (TS) (Acetobacter xylinum ATCC 53582); assay: Con A-Sepharose 4B column chromatography of TS; bound enzyme eluted with 0.3 M methyl alpha-D-mannopyranoside
[4] = molecular target: T2, cellulose synthase (Komagataeibacter xylinus, UniProt P0CW87); assay: Cellulose synthase enzyme assay (UDP-[14C]glc into alkali-insoluble material); format: biochemical, Acetobacter xylinum
T2 construct: endogenous in cells; host or cells: Acetobacter xylinum; washed or trypsinized membranes, Triton X-100, n-octyl glucoside or digitonin extracts, entrapment pellets EP1 and EP2
T2 sequence (P0CW87 1-723): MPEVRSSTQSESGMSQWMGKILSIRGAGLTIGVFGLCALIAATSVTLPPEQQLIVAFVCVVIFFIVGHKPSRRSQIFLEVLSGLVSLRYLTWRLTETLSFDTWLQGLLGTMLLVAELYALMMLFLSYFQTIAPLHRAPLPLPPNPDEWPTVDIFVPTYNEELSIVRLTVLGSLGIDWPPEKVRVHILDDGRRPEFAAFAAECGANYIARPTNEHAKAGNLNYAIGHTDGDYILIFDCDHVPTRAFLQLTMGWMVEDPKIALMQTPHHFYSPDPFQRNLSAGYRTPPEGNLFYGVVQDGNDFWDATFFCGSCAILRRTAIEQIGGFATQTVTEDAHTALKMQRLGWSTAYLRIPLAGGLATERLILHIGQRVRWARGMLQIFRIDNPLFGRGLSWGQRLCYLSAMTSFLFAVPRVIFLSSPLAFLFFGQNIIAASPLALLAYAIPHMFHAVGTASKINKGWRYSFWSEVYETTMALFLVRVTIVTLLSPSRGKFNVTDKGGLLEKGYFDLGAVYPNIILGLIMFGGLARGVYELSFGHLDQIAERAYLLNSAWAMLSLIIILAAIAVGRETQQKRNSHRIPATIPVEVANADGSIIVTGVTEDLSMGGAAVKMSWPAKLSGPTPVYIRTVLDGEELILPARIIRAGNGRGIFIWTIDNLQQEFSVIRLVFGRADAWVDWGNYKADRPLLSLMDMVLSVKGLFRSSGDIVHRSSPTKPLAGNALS
T2 sequence (P0CW87 742-1550 partner limits assumed): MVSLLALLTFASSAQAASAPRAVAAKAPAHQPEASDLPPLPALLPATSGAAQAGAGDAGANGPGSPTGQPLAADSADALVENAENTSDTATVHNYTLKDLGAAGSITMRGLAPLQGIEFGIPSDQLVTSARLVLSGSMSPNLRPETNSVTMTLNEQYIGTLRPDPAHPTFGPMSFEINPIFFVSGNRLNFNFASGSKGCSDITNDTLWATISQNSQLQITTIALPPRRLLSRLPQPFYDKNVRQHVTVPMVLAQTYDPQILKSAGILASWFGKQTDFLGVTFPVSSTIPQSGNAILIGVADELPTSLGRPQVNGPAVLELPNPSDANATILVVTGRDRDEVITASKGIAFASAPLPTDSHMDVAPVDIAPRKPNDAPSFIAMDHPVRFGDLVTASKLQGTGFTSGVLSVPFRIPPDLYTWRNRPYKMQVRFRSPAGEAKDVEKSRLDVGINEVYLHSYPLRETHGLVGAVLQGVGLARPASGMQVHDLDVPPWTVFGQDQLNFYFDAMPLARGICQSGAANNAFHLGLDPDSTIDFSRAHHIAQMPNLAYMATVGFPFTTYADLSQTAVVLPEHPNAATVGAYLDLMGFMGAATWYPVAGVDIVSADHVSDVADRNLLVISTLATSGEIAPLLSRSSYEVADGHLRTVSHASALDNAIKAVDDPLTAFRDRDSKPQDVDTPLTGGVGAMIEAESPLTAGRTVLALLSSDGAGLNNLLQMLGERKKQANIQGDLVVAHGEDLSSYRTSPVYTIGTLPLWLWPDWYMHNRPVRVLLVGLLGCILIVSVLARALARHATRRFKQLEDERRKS
Method: Enzyme Assay—Assays contained a final volume of […]: 20 μl of 0.5 M Tris-HCl (pH 9.6) containing 50 mM MgCl2 and 5 mM EDTA, 20 μl of 0.1 M MgCl2, 20 μl of 10 MM CaCl2, 25 μl of TME buffer, 25 μl of H2O, 20 μl of crude Gx, and 50 μl of enzyme sample. […] The reaction was stopped with 2 ml of 0.5 M NaOH, and the radioactivity in alkali-insoluble materials was counted after filtration through glass-fiber filters, as described in detail (Bureau and Brown 1987).
Protein Determination—Protein concentrations were determined according to the method of Bradford (1976), using the protein assay kit of Bio-Rad Laboratories. A modification of the Lowry procedure (Markwell 1978) was used only with membrane preparations. In both cases, bovine serum albumin was used as a standard.

Molecule: 5′-ATGTCICAGTGGATGGG-3′ [83-1G]
- hybridization (homology) with A. xylinum DNA [1]: showed homology with a single HindIII fragment

Molecule: [N-]=[N+]=Nc1cn([C@@H]2O[C@H](COP(=O)(O)OP(=O)(O)O[C@H]3O[C@H](CO)[C@@H](O)[C@H](O)[C@H]3O)[C@@H](O)[C@H]2O)c(=O)[nH]c1=O [[β-^32P]5N3UDP-glc]
- probe concentration at which saturation of photoinsertion was being obtained ([2]; 83 kd protein band): above 100 μM
- Kd ([2]; probe 20-500 μM, 83 kd polypeptide, read-out: kd value, saturation of cellulose synthase photolabeling): 68 µM

Molecule: Nc1nc2c(ncn2[C@@H]2O[C@@H]3COP(=O)(O)O[C@H]4[C@@H](O)[C@H](n5cnc6c(=O)[nH]c(N)nc65)O[C@@H]4COP(=O)(O)O[C@H]3[C@H]2O)c(=O)[nH]1 [c-di-GMP, bis-(3′,5′)-cyclic diguanylic acid]
- increase of photoincorporation into the 83 kd band in the presence of activator ([2]; purified preparation, FIG. 8 lane 6 vs lane 5): 45%

Molecule: Concanavalin A (Con A) Sepharose 4B (from UniProt P02866 30-281)
- total enzyme activity recovered on elution from the Con A-Sepharose column [3]: > 90%

B1: trypsin: trypsin (EC 3.4.21.4), Sigma (protein, UniProt P00760 24-246, looked up)
Serine protease 1: IVGGYTCGANTVPYQVSLNSGYHFCGGSLINSQWVVSAAHCYKSGIQVRLGEDNINVVEGNEQFISASKSIVHPSYNSNTLNNDIMLIKLKSAASLNSRVASISLPTSCASAGTQCLISGWGNTKSSGTSYPDVLKCLKAPILSDSSCKSAYPGQITSNMFCAGYLEGGKDSCQGDSGGPVVCSGKLQGIVSWGSGCAQKNKPGVYTKVCNYVSWIKQTIASN
- effect of trypsin on enzyme activity of washed membranes or TS ([4]; 30 minutes at 25° C.): did not effect enzyme activity
- effect of trypsin on enzyme activity of the EP1 fraction from DS ([4]; 1 hour at 25° C.): enzyme activity was still maintained
